Calls of active or inactive are those of the source. The calls are words filed in the database; no cut-off is given here.
Experiments:
[1] = test system: Fomitopsis palustris; experiment: Antifungal activity against Fomitopsis palustris NBRC 30339 assessed as mycelial growth inhibition at 5 ug/cm2 at 25.5 degC after 14 days; format: functional
[2] = test system: Rhizopus arrhizus; experiment: Antifungal activity against Rhizopus oryzae NBRC 31005 assessed as mycelial growth inhibition at 5 ug/cm'2 at 25.5 degC after 36 hr; format: functional, organism-based
[3] = test system: Reticulitermes speratus; experiment: Antifeedant activity against Reticulitermes speratus in compound pretreated paper disks assessed as mass loss of the paper disk at 3% measured after 14 days (reference value: 7.67 mg); format: functional
[4] = test system: Reticulitermes speratus; experiment: Ratio of antifeedant activity for compound to antifeedant activity for latifolin against Reticulitermes speratus at 3% measured after 14 days; format: functional
[5] = test system: Trametes versicolor; experiment: Antifungal activity against Trametes versicolor NBRC 30340 assessed as diameter of mycelial growth at 5 ug/cm'2 at 25.5 degC after 5 days; format: functional
[6] = test system: Fomitopsis palustris; experiment: Antifungal activity against Fomitopsis palustris NBRC 30339 assessed as diameter of mycelial growth at 5 ug/cm'2 at 25.5 degC after 14 days; format: functional
[7] = test system: Trametes versicolor; experiment: Antifungal activity against Trametes versicolor NBRC 30340 assessed as mycelial growth inhibition at 5 ug/cm'2 at 25.5 degC after 5 days; format: functional
[8] = test system: Reticulitermes speratus; experiment: Ratio of antitermite activity for compound to antitermite activity for latifolin against Reticulitermes speratus at 3% measured after 14 days; format: functional
[9] = test system: Cladosporium cladosporioides; experiment: Antifungal activity against Cladosporium cladosporioides NBRC 6348 assessed as diameter of mycelial growth at 5 ug/cm'2 at 25.5 degC after 20 days; format: functional
[10] = test system: Reticulitermes speratus; experiment: Antitermite activity against Reticulitermes speratus in compound pretreated paper disks assessed as mortality at 3% measured after 14 days; format: functional

| Structure (SMILES) | inhibition (INH) [1] [%] | inhibition [2] | Activity [3] [mg] | Ratio [4] | Activity [5] [mm] | Activity [6] [mm] | inhibition (INH) [7] [%] | Ratio [8] | Activity [9] [mm] | mortality [10] [%] |
| --- | --- | --- | --- | --- | --- | --- | --- | --- | --- | --- |
| C=C[C@H](c1ccccc1O)c1cc(OC)c(OC)cc1OC [5-O-METHYLLATIFOLIN] | -0.5 | inactive | 1.29 | 3.25 | 62.3 | 52.3 | 13.2 | 1.13 | 29.2 | 30 |
| C=C[C@@H](c1cc(OC(C)=O)c(OC)cc1OC)c1ccccc1OC(C)=O [LATIFOLIN DIACETATE] | 1.4 | inactive | 1.13 | 2.89 | 56.2 | 51.3 | 21.8 | 2 | 28.7 | 53.3 |
| C=C[C@H](c1ccccc1OC)c1cc(OC)c(OC)cc1OC [LATIFOLIN DIMETHYL ETHER] | -9.6 | inactive | 1.27 | 3.42 | 60.8 | 57 | 15.3 | 2.13 | 29.3 | 56.7 |
| C=C[C@H](c1ccccc1OC)c1cc(O)c(OC)cc1OC [2'-O-METHYLLATIFOLIN] | 18.3 | inactive | 0.82 | 1.98 | 60 | 42.5 | 16.5 | 1.75 | 30 | 46.7 |
| C=C[C@H](c1ccccc1O)c1cc(O)c(OC)cc1OC [LATIFOLIN] | 37.5 | inactive | 0.39 |  | 15 | 32.5 | 79.1 |  | 26.2 | 26.7 |

— ChEMBL document CHEMBL3044595, “Bioactivity of latifolin and its derivatives against termites and fungi” (2009)
